The source of these data is patent US20100137144A1, “METHOD AND MEANS FOR DETECTING AND/OR QUANTIFYING HIERARCHICAL MOLECULAR CHANGE OF A CELL IN RESPONSE TO AN EXTERNAL STIMULUS” (Eppendorf Array Technologies S.A., priority 2005, published 2010).

“Also recorded” adds a separate entry of the source.

One experiment has as its system MCF7 cells. The experiment can be described thus: DualChip human breast cancer microarray: gene expression in stimulated MCF7 cells. Type of experiment: cell-based. As to conditions: 24 h; for Number of genes whose expression level is modified: out of 210.
Experiment [1] relates to AP1 (c-Jun), STAT1, Elk-1, p53, c-Myc, ATF2, NFATc1 and MEF2 in MCF7 cells. Put plainly: TF Chip MAPK microarray: activated transcription factors in stimulated MCF7 cells. Format: cell-based, human.
Experiment [2] relates to AP1 (c-Jun), STAT1, Elk-1, p53, c-Myc, ATF2, NFATc1 and MEF2 in U937 cells. Put plainly: TF Chip MAPK microarray: activated transcription factors in stimulated U937 cells. Format: cell-based, human. To be noted: 1000 U/ml. The protocol:
They are stimulated at 10.10^6 cells/75 cm^2 flask with IFNγ (1000 U/ml) for 15 min and 24 h or left untreated.
The activation of transcription factors is monitored on microarrays using the TF Chip MAPK kit from Eppendorf (Germany). The arrays contain double stranded DNA molecules as capture probes for the TF binding. The TF Chip MAPK allows the assay of AP1 (c-Jun), STAT1, Elk-1, p53, c-Myc, ATF2, NFATc1 and MEF2.
A blocking step is performed in a Blocking Solution (TF Chip MAPK kit, Eppendorf, Germany) for 1 h at RT, followed by a washing step using the Washing Buffer A (TF Chip MAPK kit, Eppendorf, Germany). The nuclear extracts are prepared as described in WO 01/73115. They are diluted in the Sample Dilution Solution and Binding Solution (TF Chip MAPK kit, Eppendorf, Germany) and contacted with the arrays. Incubation is performed for one hour at room temperature and under agitation at 600 rpm. Samples are removed and microarrays are washed 3 times.
A mix of primary antibodies (Primary Antibody Cocktail; TF Chip MAPK kit, Eppendorf, Germany), each specifically recognizing the activated form of a transcription factor to be detected and diluted in the Primary Antibody Solution (TF Chip MAPK kit, Eppendorf, Germany), is contacted with the microarrays for 1 h at RT, followed by 3 washing steps. Each microarray is then contacted with Cy3-labeled secondary antibodies under indirect light for 45 min at RT, followed by washing.
Hybridization chambers are removed, and slides are rinsed with Washing Buffer B (TF Chip MAPK kit, Eppendorf, Germany) and dried. A fluorescence detection of signals is performed by scanning slides using a laser confocal scanner “ScanArray” (Packard, USA) at a resolution of 10 μm. Signals are analyzed using the TF Chip MAPK Data analysis software.
The experiment was performed as described in example 1 with the cells being stimulated for 15 min and 24 h with IFNγ or IFNα at the same concentration (1000 U/ml).
The assays were performed on the TF Chip MAPK kit and on the DualChip® human RNAi side effect (Eppendorf, Germany) as in example 1. Table 2 presents the ratios for the genes whose values were found quantitative as explained in example 1. However, we investigated further the genes which were found positive for the IFNα response. For these genes, we incorporated into the table the values for the genes determined as quantitative for IFNγ but also the values for two genes, SERPINB2 and IFIT2, which were found qualitative, and the values for 4 other genes for which the ratios were significant when a confidence interval of 90% rather than the normal 95% is considered. These values are presented for sake of completing the information on the comparison between the two treatments and are marked with an asterisk.

Another experiment relates to U937 cells. Put plainly: DualChip human RNAi side effect microarray: gene expression in stimulated U937 cells. Type of experiment: cell-based. To be noted: for Number of genes exclusively regulated by this interferon: from 89 significant genes.

As for `C[C@]12CC[C@@H]3c4ccc(O)cc4CC[C@H]3[C@@H]1CC[C@@H]2O` [β-Estradiol, β-estradiol], the “Number of genes whose expression level is modified” value in the experiment with MCF7 cells (1 μM) came out at 50 genes. Moreover, the “Activation state of c-Jun, ATF2, Elk-1 and STAT1” value in experiment [1] (MCF7 cells, 1 μM) was “did not highlight any modification in the activation state”. For the same molecule, the “Activation of c-Myc” value is listed as “reduced” in experiment [1] (MCF7 cells, 1 μM, 24 h, cells confluent) and “fast activation” in experiment [1] (sub-confluent MCF7 cells, 1 μM, 4 h). Further, in experiment [1] (MCF7 cells, 1 μM, 24 h, cells confluent, possibly not specific to the treatment), the “Activation of p53” value is “triggered”.
Consider IFNα, for which the “Activation of transcription factor STAT1” value in experiment [2] (15 min, vs unstimulated cells) was “the only TF showing a specific signal in the treated cells”. Besides, in the experiment with U937 cells (24 h, 1000 U/ml), the “Number of genes exclusively regulated by this interferon” value was found to be 6 genes.
Regarding hydrogen peroxide [H2O2], in the experiment on MCF7 cells (200 μM), the “Regulation of genes p53, bcl-x and thrombospondin-1” value is given as “not shown experimentally to be regulated”; the “Number of genes whose expression level is modified” value was 16 genes. Further, in the experiment on MCF7 cells (200 μM, of 9 on the array), the “Number of apoptotic pathway genes affected (BAG and BAX)” value is reported as 2 genes. In the experiment with MCF7 cells (200 μM, vs untreated cells), the “Expression ratio, gene BAG-1” value is reported as 1.65; the “Expression ratio, gene BAX” value is recorded as 1.86; the “Expression ratio, gene CTSD” value was 1.65; the “Expression ratio, gene FOXM1” value was found to be 0.55. In the experiment on MCF7 cells (200 μM, vs untreated cells), the “Expression ratio, gene K-alpha-1” value was found to be 0.63; the “Expression ratio, gene MCM7” value is on record as 0.57; the “Expression ratio, gene MDM2” value is 1.73; the “Expression ratio, gene MKi67” value is given as 0.56. Besides, in the experiment with MCF7 cells (200 μM, vs untreated cells), the “Expression ratio, gene MYBL2” value was 0.53; the “Expression ratio, gene Muc1” value was 1.64; the “Expression ratio, gene NIFU” value is reported as 1.53; the “Expression ratio, gene ODC” value came out at 0.61. In the experiment on MCF7 cells (200 μM, vs untreated cells), the “Expression ratio, gene PPP1CB” value was 0.62; the “Expression ratio, gene STMN1” value is listed as 0.54; the “Expression ratio, gene TOB” value worked out at 1.63; the “Expression ratio, gene p21 (CDKN1A)” value is 3.26. The “Activation state of c-Jun, Elk-1 and STAT1” value in experiment [1] (MCF7 cells, 200 μM) is on record as “did not highlight any modification in the activation state”. In experiment [1] (MCF7 cells, 200 μM, 3 h), the “Activation of ATF2, c-Myc, MEF2 and NFATc1” value is listed as “suppressed”. The “Activation of transcription factor p53” value in experiment [1] (MCF7 cells, 200 μM, 3 h and 24 h) is listed as “activation of p53”. The “Activation of ATF2, c-Myc, MEF2 and NFATc1” value in experiment [1] (MCF7 cells, 200 μM, 24 h) is “restored to a basal level”.
“IFNγ: interferon γ, used at 1000 U/ml as stimulus of U937 cells”: in experiment [2], the “Activation of transcription factor MEF2” value is “activated in IFNγ stimulated and non stimulated conditions”. Further, the “Activation of transcription factor STAT1” value in experiment [2] (15 min, vs unstimulated cells) is given as “specifically activated; also recorded: fast activation; also recorded: the only TF showing a specific signal in the treated cells”. Moreover, in experiment [2] (24 h), the “Activation of transcription factor STAT1” value was “disappears after 24 h”. The “Activation of the 7 other transcription factors (AP1 (c-Jun), Elk-1, p53, c-Myc, ATF2, NFATc1, MEF2)” value in experiment [2] (vs unstimulated cells) was “None of the 7 other ones (AP1 (c-Jun), Elk-1, p53, c-Myc, ATF2, NFATc1 and MEF2) were activated”. The “Number of genes affected at the two stimulation times” value in the experiment on U937 cells (15 min and 24 h) is given as “Five”. Besides, the “Differential expression of genes BAX and BCLX” value in the experiment with U937 cells (1000 U/ml) is “not found to be differentially expressed”. In the experiment on U937 cells (1000 U/ml, 15 min and 24 h, quantitative analysis, 260 genes on array), the “Number of genes whose expression level varies significantly” value turned out to be 81 genes. Also, the “Expression level of gene FOS” value in the experiment on U937 cells (1000 U/ml, 24 h) is recorded as “returned to a basal level”. In the experiment with U937 cells (24 h, 1000 U/ml), the “Number of genes exclusively regulated by this interferon” value came out at 62 genes. In the experiment with U937 cells (out of 81), the “Number of genes specifically affected by a 15 min treatment” value was 4 genes and the “Number of genes specifically modified after a 24 h treatment” value stood at 72 genes.
